Assay results published in patent US20250361217A1, “FATTY ACID COMPOUNDS” (University of Pittsburgh - Of the Commonwealth System of …, priority 2022, published 2025).

Target: T1, ACLY (Mus musculus, UniProt Q91V92)
T1 construct: Proteins were extracted from the liver powder (50 mg) with 1 mL of phosphate-buffered saline; from tissue; host or cells: liver of male C57BL/6J mice (HFD, treated in vivo with vehicle or 11U3-2M)
T1 sequence (Q91V92 1-1091): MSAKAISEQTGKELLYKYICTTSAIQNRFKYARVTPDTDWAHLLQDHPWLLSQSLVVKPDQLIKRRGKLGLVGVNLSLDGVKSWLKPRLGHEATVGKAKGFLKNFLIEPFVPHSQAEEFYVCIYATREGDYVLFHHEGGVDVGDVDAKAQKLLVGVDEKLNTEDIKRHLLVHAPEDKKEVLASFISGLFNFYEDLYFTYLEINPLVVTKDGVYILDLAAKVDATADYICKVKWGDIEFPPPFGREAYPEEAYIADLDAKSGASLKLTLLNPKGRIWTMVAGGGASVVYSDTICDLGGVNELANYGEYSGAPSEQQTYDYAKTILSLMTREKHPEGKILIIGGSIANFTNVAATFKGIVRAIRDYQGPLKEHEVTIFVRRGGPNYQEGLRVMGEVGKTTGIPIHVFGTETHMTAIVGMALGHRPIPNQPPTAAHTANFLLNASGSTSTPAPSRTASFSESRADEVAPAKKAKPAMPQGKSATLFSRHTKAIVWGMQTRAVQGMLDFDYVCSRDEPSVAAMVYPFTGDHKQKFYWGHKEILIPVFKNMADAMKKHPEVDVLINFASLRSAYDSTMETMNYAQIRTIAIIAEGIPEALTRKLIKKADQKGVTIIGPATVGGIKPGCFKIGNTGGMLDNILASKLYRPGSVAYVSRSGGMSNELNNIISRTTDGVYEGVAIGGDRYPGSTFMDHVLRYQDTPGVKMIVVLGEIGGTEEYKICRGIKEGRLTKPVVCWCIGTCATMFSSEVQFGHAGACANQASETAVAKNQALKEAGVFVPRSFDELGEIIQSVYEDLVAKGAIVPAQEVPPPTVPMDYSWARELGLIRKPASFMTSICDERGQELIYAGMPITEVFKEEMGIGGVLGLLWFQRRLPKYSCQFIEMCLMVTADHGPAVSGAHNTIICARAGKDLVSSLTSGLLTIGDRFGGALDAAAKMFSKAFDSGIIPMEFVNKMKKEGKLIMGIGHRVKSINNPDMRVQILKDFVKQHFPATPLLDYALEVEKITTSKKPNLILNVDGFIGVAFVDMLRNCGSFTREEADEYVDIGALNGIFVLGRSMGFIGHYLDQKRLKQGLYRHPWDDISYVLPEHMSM
Assay: Thermal shift assay of liver proteins, ACLY
Assay type: binding, mice
Procedure: The liver samples (50 mg) were homogenized and vortexed in ice-cold RIPA buffer containing phosphatase (Fisher Scientific, #PIA32957) and protease (Fisher Scientific, #PIA32953) inhibitor cocktails. Protein concentration was determined using a […] (Pierce). Protein lysates were mixed with LDS Sample Buffer (1:4) and heated for 2 min at 95° C. The lysates were then loaded and electrophoresed on a 10% Tris-Glycine eXtended (BioRad, Criterion #5671034). The proteins were electrophoretically transferred to a PVDF membrane (BioRad, #1620177), and the transfer was confirmed by staining the membrane with 0.1% Ponceau S solution (Sigma-Aldrich, #6226-79-5). The membrane was then blocked for 90 min at RT with 5% nonfat dry milk (LabScientific) or 5% BSA (MilliporeSigma) in TBS-T (tris buffered saline+0.1% Tween 20 [Thermo Fisher Scientific]). […] Quantitative densitometric analysis was performed using Image Lab software (Bio-Rad).
Thermal Shift Assay Proteins were extracted from the liver powder (50 mg) with 1 mL of phosphate-buffered saline (PBS—Gibco, Paisley, UK) containing phosphatase (Fisher Scientific, #PIA32957) and protease (Fisher Scientific, #PIA32953) inhibitors. […] The Supernatants were transferred to new tubes and analyzed by western blot as described above.

CCCc1ccc(CCCCCCCCCC(C)(C)C(=O)O)o1 [11U3-2M, 2,2-Dimethyl-11-(5-propylfuran-2-yl)undecanoic acid]
ACLY thermal stability (full cohorts, HFD+11U3-2M, higher temperature (52, 53.5, 55° C.)): greatly increased | ACLY thermal stability compared to veh (one mouse per group, 52, 53.5 and 55° C.): higher stability
